Reference: patent US20240293413A1, “COMPOUND AND METHOD FOR TREATING CHEMOTHERAPY-RELATED GASTROINTESTINAL SIDE EFFECTS” (ONQUALITY PHARMACEUTICALS CHINA LTD., priority 2021, published 2024)

Assays:
[1] = tested on: diarrhea caused by a chemotherapeutic agent in Balb/c mice; test: Examples 343-381 (Table 6): oral versus intravenous CDK inhibitor, relief of diarrhea caused by a chemotherapeutic agent; assay type: in vivo; details: for relief of diarrhea by oral administration and injection administration: diarrhea caused by etoposide, etoposide in combination with cisplatin, carboplatin, gemcitabine, gemcitabine in combination with carboplatin, and topotecan, oral administration has the most significant effect;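 for Relative remission rate: percent of treated mice whose diarrhea grade fell below chemotherapy-group average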
Summary of the method: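 Balb/c mice (10 per group) received the CDK inhibitor orally or by tail-vein injection, or vehicle, followed by a chemotherapeutic agent or its solvent. Diarrhea grade was scored daily.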

[2] = tested on: diarrhea caused by the continuous administration of a chemotherapeutic agent in Balb/c mice; test: Examples 444-469 (Table 9): oral CDK inhibitor, diarrhea caused by continuous administration of a chemotherapeutic agent; assay type: in vivo
From the text: Balb/c mice were fed for 1 week, and then divided into groups. The experiment was divided into a control group, a chemotherapeutic agent group, and a CDK inhibitor group, each of which comprised 10 mice, to perform the administration experiment, for which the administration dosage, mode, time and frequency were shown in Table 9. The control group: being intragastrically administered with the same solvent as that used in the CDK inhibitor group (the time was shown in Table 9), and then being injected/intragastrically administered with the same solvent as that used in the chemotherapeutic agent group (the administration mode was shown in Table 9): the chemotherapeutic agent group: being intragastrically administered with the same solvent as that used in the CDK inhibitor group (the time was shown in Table 9), and then being injected/intragastrically administered with the chemotherapeutic agent (the type, administration mode, dosage and duration time were shown in Table 9): the CDK inhibitor group: being intragastrically administered with the CDK inhibitor (the time was shown in Table 9), and then being administered with the chemotherapeutic agent (the type, administration mode, dosage and duration time were shown in Table 9).
The scoring of diarrhea can refer to the method of Akinobu Kurita (Cancer Chemother Pharmacol 2000: 46:211-20.), Grade 0: normal feces: Grade 1: mild diarrhea, the stools is slightly wet and soft: Grade 2: moderate diarrhea, loose stools and mild perianal contamination: Grade 3: severe diarrhea, watery stools and accompanied by severe perianal staining (see FIG. 1). It is regarded as effective remission when the diarrhea grading of mice in the CDK inhibitor group is reduced compared with the average diarrhea grading of mice in the chemotherapeutic agent group.
The diarrhea grading of mice was observed and recorded every day. At the end of the experiment, the number of mice in the CDK inhibitor group whose diarrhea grading was lower than that of mice in the chemotherapeutic agent group was recorded. Table 9 lists various animal experiment combinations of chemotherapeutic agents and CDK inhibitors, as well as the corresponding experimental results. (Relative remission rate %=the number of mice in the CDK inhibitor group whose diarrhea has been effectively relieved/the total number of mice in the CDK inhibitor group*100%. The establishment rate of diarrhea model in the chemotherapeutic agent group was 50%-80%, that is, about 5-8 of 10 mice developed diarrhea during the experiment, and there were cases of individual mice death or not developing diarrhea.)

[3] = continuous administration of fluorouracil and capecitabine for 7 days or above
[4] = continuous administration of fluorouracil for less than 7 days

Question: What does the source list for CCN1CCN(Cc2ccc(Nc3ncc(F)c(-c4cc(F)c5nc(C)n(C(C)C)c5c4)n3)nc2)CC1 [Abemaciclib]?
Answer: Relative remission rate ([1]; Example 364, Carboplatin (CBP) intramuscular injection 150 mg/kg single, CDK inhibitor intravenous injection 150 mg/kg single, 8 h before, cycle 10 days): 20%; Relative remission rate ([1]; Example 364, Carboplatin (CBP) intramuscular injection 150 mg/kg single, CDK inhibitor oral 150 mg/kg single, 8 h before, cycle 10 days): 50%; Relative remission rate ([1]; Example 371, Gemcitabine (GEM) intraperitoneal injection 120 mg/kg single, CDK inhibitor intravenous injection 150 mg/kg single, 0.5 h before, cycle 8 days): 10%; Relative remission rate ([1]; Example 371, Gemcitabine (GEM) intraperitoneal injection 120 mg/kg single, CDK inhibitor oral 150 mg/kg single, 0.5 h before, cycle 8 days): 30%; Relative remission rate ([1]; Example 372, Gemcitabine (GEM) intraperitoneal injection 120 mg/kg single, CDK inhibitor intravenous injection 150 mg/kg single, 4 h before, cycle 8 days): 10%; Relative remission rate ([1]; Example 372, Gemcitabine (GEM) intraperitoneal injection 120 mg/kg single, CDK inhibitor oral 150 mg/kg single, 4 h before, cycle 8 days): 30%; Relative remission rate ([1]; Example 373, Gemcitabine (GEM) intraperitoneal injection 120 mg/kg single, CDK inhibitor intravenous injection 150 mg/kg single, 8 h before, cycle 8 days): 20%; Relative remission rate ([1]; Example 373, Gemcitabine (GEM) intraperitoneal injection 120 mg/kg single, CDK inhibitor oral 150 mg/kg single, 8 h before, cycle 8 days): 50%; Relative remission rate ([1]; Example 374, Gemcitabine (GEM) intraperitoneal injection 120 mg/kg single, CDK inhibitor intravenous injection 150 mg/kg single, 12 h before, cycle 8 days): 20%; Relative remission rate ([1]; Example 374, Gemcitabine (GEM) intraperitoneal injection 120 mg/kg single, CDK inhibitor oral 150 mg/kg single, 12 h before, cycle 8 days): 50%; Relative remission rate ([1]; Example 375, Gemcitabine (GEM) intraperitoneal injection 120 mg/kg single, CDK inhibitor intravenous injection 150 mg/kg single, 24 h before, cycle 8 days): 10%; Relative remission rate ([1]; Example 375, Gemcitabine (GEM) intraperitoneal injection 120 mg/kg single, CDK inhibitor oral 150 mg/kg single, 24 h before, cycle 8 days): 40%; Relative remission rate ([2]; Example 457, Fluorouracil (5-Fu) oral administration 50 mg/kg once a day, for 14 days, CDK inhibitor oral 150 mg/kg once a day, for 14 days, 8 h before, cycle 14 days): 0%

Question: Which results are given for CN(C)C(=O)c1cc2cnc(Nc3ccc(N4CCNCC4)cn3)nc2n1C1CCCC1 [Ribociclib]?
Answer: Relative remission rate ([1]; Example 352, Etoposide and cisplatin intraperitoneal injection 50 (E) 5 (Cis) mg/kg single, CDK inhibitor intravenous injection 125 mg/kg single, 0.5 h before, cycle 7 days): 10%; Relative remission rate ([1]; Example 352, Etoposide and cisplatin intraperitoneal injection 50 (E) 5 (Cis) mg/kg single, CDK inhibitor oral 125 mg/kg single, 0.5 h before, cycle 7 days): 40%; Relative remission rate ([1]; Example 353, Etoposide and cisplatin intraperitoneal injection 50 (E) 5 (Cis) mg/kg single, CDK inhibitor intravenous injection 125 mg/kg single, 4 h before, cycle 7 days): 10%; Relative remission rate ([1]; Example 353, Etoposide and cisplatin intraperitoneal injection 50 (E) 5 (Cis) mg/kg single, CDK inhibitor oral 125 mg/kg single, 4 h before, cycle 7 days): 40%; Relative remission rate ([1]; Example 354, Etoposide and cisplatin intraperitoneal injection 50 (E) 5 (Cis) mg/kg single, CDK inhibitor intravenous injection 125 mg/kg single, 8 h before, cycle 7 days): 10%; Relative remission rate ([1]; Example 354, Etoposide and cisplatin intraperitoneal injection 50 (E) 5 (Cis) mg/kg single, CDK inhibitor oral 125 mg/kg single, 8 h before, cycle 7 days): 60%; Relative remission rate ([1]; Example 355, Etoposide and cisplatin intraperitoneal injection 50 (E) 5 (Cis) mg/kg single, CDK inhibitor intravenous injection 125 mg/kg single, 12 h before, cycle 7 days): 20%; Relative remission rate ([1]; Example 355, Etoposide and cisplatin intraperitoneal injection 50 (E) 5 (Cis) mg/kg single, CDK inhibitor oral 125 mg/kg single, 12 h before, cycle 7 days): 60%; Relative remission rate ([1]; Example 356, Etoposide and cisplatin intraperitoneal injection 50 (E) 5 (Cis) mg/kg single, CDK inhibitor intravenous injection 125 mg/kg single, 24 h before, cycle 7 days): 10%; Relative remission rate ([1]; Example 356, Etoposide and cisplatin intraperitoneal injection 50 (E) 5 (Cis) mg/kg single, CDK inhibitor oral 125 mg/kg single, 24 h before, cycle 7 days): 50%; Relative remission rate ([1]; Example 359, Carboplatin (CBP) intraperitoneal injection 120 mg/kg single, CDK inhibitor intravenous injection 200 mg/kg single, 0.5 h before, cycle 10 days): 20%; Relative remission rate ([1]; Example 359, Carboplatin (CBP) intraperitoneal injection 120 mg/kg single, CDK inhibitor oral 200 mg/kg single, 0.5 h before, cycle 10 days): 60%; Relative remission rate ([1]; Example 360, Carboplatin (CBP) intraperitoneal injection 120 mg/kg single, CDK inhibitor intravenous injection 200 mg/kg single, 4 h before, cycle 10 days): 20%; Relative remission rate ([1]; Example 360, Carboplatin (CBP) intraperitoneal injection 120 mg/kg single, CDK inhibitor oral 200 mg/kg single, 4 h before, cycle 10 days): 80%; Relative remission rate ([1]; Example 361, Carboplatin (CBP) intraperitoneal injection 120 mg/kg single, CDK inhibitor intravenous injection 200 mg/kg single, 8 h before, cycle 10 days): 10%; Relative remission rate ([1]; Example 361, Carboplatin (CBP) intraperitoneal injection 120 mg/kg single, CDK inhibitor oral 200 mg/kg single, 8 h before, cycle 10 days): 60%; Relative remission rate ([1]; Example 362, Carboplatin (CBP) intraperitoneal injection 120 mg/kg single, CDK inhibitor intravenous injection 200 mg/kg single, 12 h before, cycle 10 days): 10%; Relative remission rate ([1]; Example 362, Carboplatin (CBP) intraperitoneal injection 120 mg/kg single, CDK inhibitor oral 200 mg/kg single, 12 h before, cycle 10 days): 60%; Relative remission rate ([1]; Example 363, Carboplatin (CBP) intraperitoneal injection 120 mg/kg single, CDK inhibitor intravenous injection 200 mg/kg single, 24 h before, cycle 10 days): 10%; Relative remission rate ([1]; Example 363, Carboplatin (CBP) intraperitoneal injection 120 mg/kg single, CDK inhibitor oral 200 mg/kg single, 24 h before, cycle 10 days): 80%; Relative remission rate ([1]; Example 376, Gemcitabine (GEM) oral administration 300 mg/kg single, CDK inhibitor intravenous injection 100 mg/kg single, 24 h before, cycle 8 days): 20%; Relative remission rate ([1]; Example 376, Gemcitabine (GEM) oral administration 300 mg/kg single, CDK inhibitor oral 100 mg/kg single, 24 h before, cycle 8 days): 60%; relief of diarrhea by oral administration and injection administration [1]: effectively relieve diarrhea; Relative remission rate ([2]; Example 456, Fluorouracil (5-Fu) intravenous injection 70 mg/kg once a day, for 3 days, CDK inhibitor oral 200 mg/kg once a day, for 3 days, 4 h before, cycle 8 days): 80%; relieving effect on diarrhea [2, 3]: not significant; relieving effect on diarrhea [2, 4]: significant relieving effects

Question: With CN1CCN(c2ccc(Nc3ncc4cc5n(c4n3)C3(CCCCC3)CNC5=O)nc2)CC1 [Trilaciclib (G1T28), Trilaciclib] as the molecule, how does the Relative remission rate ([1]; Example 348, Etoposide intraperitoneal injection 75 mg/kg single, CDK inhibitor intravenous injection 100 mg/kg single, 24 h before, cycle 8 days) read?
Answer: 10%

Question: And the Relative remission rate ([1]; Example 348, Etoposide intraperitoneal injection 75 mg/kg single, CDK inhibitor oral 100 mg/kg, 24 h before, cycle 8 days)?
Answer: 60%

Question: And the Relative remission rate ([1]; Example 365, Carboplatin (CBP) intravenous injection 120 mg/kg single, CDK inhibitor intravenous injection 100 mg/kg single, 24 h before, cycle 10 days)?
Answer: 10%

Question: What about the Relative remission rate ([1]; Example 365, Carboplatin (CBP) intravenous injection 120 mg/kg single, CDK inhibitor oral 100 mg/kg single, 24 h before, cycle 10 days) of the same molecule?
Answer: 30%

Question: And the Relative remission rate ([1]; Example 367, Topotecan (TP) intraperitoneal injection 10 mg/kg single, CDK inhibitor intravenous injection 200 mg/kg single, 24 h before, cycle 10 days)?
Answer: 10%

Question: What about the Relative remission rate ([1]; Example 367, Topotecan (TP) intraperitoneal injection 10 mg/kg single, CDK inhibitor oral 100 mg/kg single, 24 h before, cycle 10 days) of the same molecule?
Answer: 30%

Question: What about the Relative remission rate ([1]; Example 377, Gemcitabine (GEM) intramuscular injection 120 mg/kg single, CDK inhibitor intravenous injection 50 mg/kg single, 1 h before, cycle 8 days) of the same molecule?
Answer: 10%

Question: And the Relative remission rate ([1]; Example 377, Gemcitabine (GEM) intramuscular injection 120 mg/kg single, CDK inhibitor oral 50 mg/kg single, 1 h before, cycle 8 days)?
Answer: 60%

Question: What about the Relative remission rate ([1]; Example 380, Gemcitabine and carboplatin intravenous injection 120 (G) 100 (C) mg/kg single, CDK inhibitor intravenous injection 100 mg/kg single, 0.5 h before, cycle 8 days) of the same molecule?
Answer: 20%

Question: And the Relative remission rate ([1]; Example 380, Gemcitabine and carboplatin intravenous injection 120 (G) 100 (C) mg/kg single, CDK inhibitor oral 100 mg/kg single, 0.5 h before, cycle 8 days)?
Answer: 60%

Question: And the Relative remission rate ([1]; Example 381, Gemcitabine and carboplatin intravenous injection 120 (G) 100 (C) mg/kg single, CDK inhibitor intravenous injection 100 mg/kg single, 24 h before, cycle 8 days)?
Answer: 10%

Question: And the Relative remission rate ([1]; Example 381, Gemcitabine and carboplatin intravenous injection 120 (G) 100 (C) mg/kg single, CDK inhibitor oral 100 mg/kg single, 24 h before, cycle 8 days)?
Answer: 40%

Question: And the “relief of diarrhea by oral administration and injection administration” value [1]?
Answer: effectively relieve diarrhea

Question: What about the Relative remission rate ([2]; Examples 452-455 (one value given; 2 h, 4 h, 6 h, 8 h before), Fluorouracil (5-Fu) intraperitoneal injection 70 mg/kg once a day, for 7 days, CDK inhibitor oral 125 mg/kg once a day, for 7 days, cycle 10 days) of the same molecule?
Answer: 10%

Question: And the Relative remission rate ([2]; Examples 458-461 (one value given; 2 h, 4 h, 6 h, 8 h before), Capecitabine oral administration 1000 mg/kg (printed 100/0 wrapped) once a day, for 5 days, CDK inhibitor oral 100 mg/kg once a day, for 5 days, cycle 14 days)?
Answer: 50%

Question: And the “relieving effect on diarrhea” value [2, 3]?
Answer: not significant

Question: What about the “relieving effect on diarrhea” value [2, 4] of the same molecule?
Answer: significant relieving effects
